For this assay, the target named is T1, Human Polθ polymerase domain (aa1820-2590) (Homo sapiens, UniProt O75417).
T1 construct: Human Polθ polymerase domain (aa1820-2590) was expressed in E. coli; made in house; host or cells: E. coli
T1 sequence (O75417 1820-2590): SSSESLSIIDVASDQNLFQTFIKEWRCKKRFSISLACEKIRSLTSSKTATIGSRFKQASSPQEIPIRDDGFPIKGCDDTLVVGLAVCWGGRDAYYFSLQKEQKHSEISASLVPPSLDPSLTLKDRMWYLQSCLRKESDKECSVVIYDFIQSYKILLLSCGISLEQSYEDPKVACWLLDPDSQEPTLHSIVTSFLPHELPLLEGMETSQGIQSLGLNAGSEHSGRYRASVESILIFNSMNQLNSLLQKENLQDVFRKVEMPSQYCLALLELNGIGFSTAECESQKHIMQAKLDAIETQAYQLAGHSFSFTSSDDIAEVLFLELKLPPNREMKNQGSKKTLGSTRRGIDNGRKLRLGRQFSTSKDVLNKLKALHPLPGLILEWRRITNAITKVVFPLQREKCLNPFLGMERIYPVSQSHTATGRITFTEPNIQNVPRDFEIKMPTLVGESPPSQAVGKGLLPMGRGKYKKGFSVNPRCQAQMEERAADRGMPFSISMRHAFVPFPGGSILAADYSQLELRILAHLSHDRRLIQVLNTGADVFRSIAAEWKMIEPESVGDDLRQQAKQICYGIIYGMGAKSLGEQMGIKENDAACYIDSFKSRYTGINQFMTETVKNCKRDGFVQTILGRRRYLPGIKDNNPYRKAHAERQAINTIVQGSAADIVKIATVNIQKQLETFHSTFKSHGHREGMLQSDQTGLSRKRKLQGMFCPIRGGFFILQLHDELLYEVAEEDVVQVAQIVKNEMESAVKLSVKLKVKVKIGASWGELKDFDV
Description: Polθ Polymerase Domain Kinact/KI Assay (PicoGreen). It is filed as biochemical. The note with it: 0.8 nM Polθ, 100 nM DNA substrate, kobs vs [I] fit for 2-step covalent inhibitor. An outline of the steps: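 Time-dependent inhibition was followed by quenching reactions with EDTA at points up to 60 min, then staining product DNA with PicoGreen fluorescence. Reactions held 0.8 nM E. coli-expressed Polθ, 100 nM primed DNA substrate and […] at pH 7.5, 1% DMSO. kobs versus inhibitor concentration gave Kinact and KI.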

`C=C(CN(C)C)C(=O)NCC12CC(CN3C[C@H]4CC(=O)N(c5cc(C(F)(F)F)cc(C)n5)[C@@H]4C(=O)N(C)c4cccc(C)c43)(C1)C2` [Example 185, N-((3-(((3aR,11aS)-6,10-dimethyl-1-(6-methyl-4-(trifluoromethyl)-pyridin-2-yl)-2,11-dioxo-1,2,3,3a,4, 10,11,11a-octa-hydro-5H-benzo [b]pyrrolo[2,3-f] [1,4]diazocin-5-yl)methyl)bicyclo [1.1.1]pentan-1-yl)methyl)-2-((dimethylamino)-methyl)acrylamide]: the Kinact/Kl came to 1.27e+06 M⁻¹ s⁻¹.

For the molecule `Cc1cc(C(F)(F)F)cc(N2C(=O)C[C@@H]3CN(CC45CC(NC(=O)/C=C/CN(C)C)(C4)C5)c4c(C)cccc4N(C)C(=O)[C@H]32)n1` [Example 178, (E)-N-(3-(((3aR, 11aS)-6,10-dimeth-yl-1-(6-methyl-4-(trifluoromethyl)-pyridin-2-yl)-2,11-dioxo-1,2,3,3a,4, 10,11,11a-octa-hydro-5H-benzo [b]pyrrolo[2,3-f] [1,4]diazocin-5-yl)methyl)bicyclo [1.1.1]pentan-1-yl)-4-(dimethyl-amino)but-2-enamide], the Kinact/Kl was 1.6e+06 M⁻¹ s⁻¹.

In the case of `C=CC(=O)N1CC(N2CC[C@H](CN3C[C@H]4CC(=O)N(c5cc(C(F)(F)F)cc(C)n5)[C@@H]4C(=O)N(C)c4cccc(C)c43)C2)C1` [Example 223, (3aR,11aS)-5-(((S)-1-(1-acryloylazetidin-3-yl)pyrrolidin-3-yl)methyl)-6,10-dimethyl-1-(6-methyl-4-(trifluoromethyl)pyridin-2-yl)-1,3a,4,5,10,11a-hexahydro-2H-benzo[b]pyrrolo [2,3-f][1,4] diazocine-2,11(3H)-dione], the Kinact/Kl is 1.62e+06 M⁻¹ s⁻¹.

For `C=CC(=O)N1Cc2nc(CN3C[C@H]4CC(=O)N(c5cc(C(F)(F)F)cc(C)n5)[C@@H]4C(=O)N(C)c4cccc(C)c43)n(C)c2C1` [Example 241, (3aR,11aS)-5-((5-acryloyl-1-methyl-1,4,5,6-tetrahydropyrrolo[3,4-d]imidazol-2-yl)methyl)-6,10-dimethyl-1-(6-methyl-4-(trifluoromethyl)pyridin-2-yl)-1,3a,4,5,10,11a-hexahydro-2H-benzo[b]pyrrolo[2,3-f][1,4]diazocine-2,11(3H)-dione], the Kinact/Kl stood at 1.28e+06 M⁻¹ s⁻¹.

For the molecule `C=CC(=O)N1CCN2CCN(C(=O)CN3C[C@H]4CC(=O)N(c5cc(C(F)(F)F)cc(C)n5)[C@@H]4C(=O)N(C)c4cccc(F)c43)CC2C1` (mixture of isomers) [Example 76a, (3aR,11aS)-5-(2-((R/S)-8-acryloyloctahydro-2H-pyrazino[1,2-a]pyrazin-2-yl)-2-oxoethyl)-6-fluoro-10-methyl-1-(6-methyl-4-(trifluoromethyl)pyridin-2-yl)-1,3a,4,5,10,11a-hexahydro-2H-benzo[b]pyrrolo[2,3-f][1,4]diazocine-2,11(3H)-dione], the Kinact/Kl was 220000 M⁻¹ s⁻¹.

As to `C=CC(=O)N1Cc2nc(CN3C[C@H]4CC(=O)N(c5cc(C(F)(F)F)cc(C)n5)[C@@H]4C(=O)N(C)c4cccc(C)c43)ccc2[C@H]1CC#N` (racemic) [Example 319b, 2-((R/S)-6-acryloyl-2-(((3aR,11aS)-6,10-dimethyl-1-(6-meth-yl-4-(trifluorometh-yl)pyridin-2-yl)-2,11-dioxo-1,2,3,3a, 4,10,11,11a-octa-hydro-5H-benzo[b]pyrrolo[2,3-f][1,4]diazocin-5-yl)meth-yl)-6,7-dihydro-5H-pyrrolo[3,4-b]pyr-idin-5-yl)acetonitrile], the Kinact/Kl is 1.66e+06 M⁻¹ s⁻¹.

`C=CC(=O)N1CCCC1c1ccc(CN2C[C@H]3CC(=O)N(c4cc(C(F)(F)F)cc(C)n4)[C@@H]3C(=O)N(C)c3cccc(F)c32)cc1` (single isomer, unassigned) [Example 141a] displayed a Kinact/Kl of 200000 M⁻¹ s⁻¹.

Take `C=CC(=O)N1CCN(CCN2C[C@H]3CC(=O)N(c4cc(C(F)(F)F)cc(C)n4)[C@@H]3C(=O)N(C)c3cccc(Cl)c32)CC1CC#N` (mixture of isomers) [Example 258b, 2-((S/R)-1-acryloyl-4-(2-((3aR,11aS)-6-chloro-10-methyl-1-(6-methyl-4-(trifluoromethyl)pyridin-2-yl)-2,11-dioxo-1,2,3,3a,4,10,11,11a-octahydro-5H-benzo[b]pyrrolo[2,3-f][1,4]diazocin-5-yl)ethyl)piperazin-2-yl)acetonitrile]: the Kinact/Kl worked out at 1.53e+06 M⁻¹ s⁻¹.

The molecule `Cc1cc(C(F)(F)F)cc(N2C(=O)C[C@@H]3CN(CC4CCC(C5CN(C(=O)/C=C/CN(C)C)C5)CC4)c4c(Cl)cccc4N(C)C(=O)[C@H]32)n1` (stereo partly drawn) [Example 155, (3aR, 11aS)-6-chloro-5-((4-(1-((E)-4-(dimethylamino)but-2-enoyl)azetidin-3-yl)cyclohexyl)methyl)-10-methyl-1-(6-methyl-4-(trifluoromethyl)pyridin-2-yl)-1,3a,4,5,10,11a-hexahydro-2H-benzo[b]pyrrolo[2,3-f][1,4]diazocine-2,11(3H)-dione] displayed a Kinact/Kl of 2.51e+06 M⁻¹ s⁻¹.

As to `C=C(CN(C)C)C(=O)N1CC(COCCN2C[C@H]3CC(=O)N(c4cc(C(F)(F)F)cc(C)n4)[C@@H]3C(=O)N(C)c3cccc(C)c32)C1` [Example 182, (3aR,11aS)-5-(2-((1-(2-((dimethyl-amino)methyl)-acryloyl)azetidin-3-yl)methoxy)eth-yl)-6,10-dimethyl-1-(6-methyl-4-(trifluoromethyl)-pyridin-2-yl)-1,3a,4,5,10,11a-hexahydro-2H-benzo[b]pyrrolo [2,3-f][1,4]diazo-cine-2,11(3H)-dione], the Kinact/Kl came out at 5.23e+06 M⁻¹ s⁻¹.

Regarding `C=CC(=O)N1CC(N2CC[C@H](CN3C[C@H]4CC(=O)N(c5cc(C(F)(F)F)cc(C)n5)[C@@H]4C(=O)N(C)c4cccc(Cl)c43)[C@@H](C#N)C2)C1` (single isomer, unassigned) [Example 226b], the Kinact/Kl worked out at 870000 M⁻¹ s⁻¹.

`C=CC(=O)N1CC(N2CCN(CCN3C[C@H]4CC(=O)N(c5cc(C(F)(F)F)cc(C)n5)[C@@H]4C(=O)N(C)c4cc(F)cc(C)c43)CC2)C1` [Example 18, (3aR,11aS)-5-(2-(4-(1-acryloylazetidin-3-yl)piperazin-1-yl)ethyl)-8-fluoro-6,10-dimethyl-1-(6-methyl-4-(trifluoromethyl)pyridin-2-yl)-1,3a,4,5,10,11a-hexahydro-2H-benzo[b]pyrrolo[2,3-f][1,4]diazocine-2,11(3H)-dione] had a Kinact/Kl of 1.18e+06 M⁻¹ s⁻¹.

In turn, `C=C(CN(C)C)C(=O)N1CCc2cc(CN3C[C@H]4CC(=O)N(c5cc(C(F)(F)F)cc(C)n5)[C@@H]4C(=O)N(C)c4cccc(F)c43)ccc2C1` [Example 154, (3aR, 11aS)-5-((2-(2-((dimethylamino)methyl)acryloyl)-1,2,3,4-tetrahydroisoquinolin-6-yl)methyl)-6-fluoro-10-methyl-1-(6-methyl-4-(trifluoromethyl)pyridin-2-yl)-1,3a,4,5,10,11a-hexahydro-2H-benzo[b]pyrrolo[2,3-f][1,4]diazocine-2,11(3H)-dione] had a Kinact/Kl of 2.3e+06 M⁻¹ s⁻¹.

For the molecule `C=CC(=O)N1Cc2nc(CN3C[C@H]4CC(=O)N(c5cc(C(F)(F)F)cc(C)n5)[C@@H]4C(=O)N(C)c4cccc(C)c43)n(CC)c2C1` [Example 314, (3aR,11aS)-5-((5-acryloyl-1-ethyl-1,4,5,6-tetrahydro-pyrrolo[3,4-d]imid-azol-2-yl)methyl)-6,10-dimethyl-1-(6-methyl-4-(trifluoro-methyl)pyridin-2-yl)-1,3a,4,5,10,11a-hexahydro-2H-benzo[b]pyrrolo [2,3-f][1,4]diazo-cine-2,11(3H)-dione], the Kinact/Kl came to 1.74e+06 M⁻¹ s⁻¹.

The molecule `C=C(CN(C)C)C(=O)NC12CC(CN3C[C@H]4CC(=O)N(c5cc(C(F)(F)F)cc(C)n5)[C@@H]4C(=O)N(C)c4cccc(C)c43)(C1)C2` [Example 184, N-(3-(((3aR,11aS)-6,10-dimethyl-1-(6-methyl-4-(trifluoromethyl)-pyridin-2-yl)-2,11-dioxo-1,2,3,3a,4, 10,11,11a-octa-hydro-5H-benzo [b]pyrrolo[2,3-f] [1,4]diazocin-5-yl)methyl)bicyclo [1.1.1]pentan-1-yl)-2-((dimethyl-amino)methyl)-acrylamide] returned a Kinact/Kl of 1.33e+06 M⁻¹ s⁻¹.

`Cc1cc(C(F)(F)F)cc(N2C(=O)C[C@@H]3CN(Cc4ccc5c(c4)C(CC#N)N(C(=O)/C=C/CN(C)C)C5)c4c(Cl)cccc4N(C)C(=O)[C@H]32)n1` (single isomer, unassigned) [Example 311a] yielded a Kinact/Kl of 1.12e+06 M⁻¹ s⁻¹.

Values taken from patent US20250230165A1, “HETEROCYCLIC COMPOUNDS FOR USE IN THE TREATMENT OF CANCER” (ARTIOS PHARMA LIMITED, priority 2021, published 2025).
